Here are results for five molecules from PMC7073916, “Potential Tools for Eradicating HIV Reservoirs in the Brain: Development of Trojan Horse Prodrugs for the Inhibition of P-Glycoprotein with Anti-HIV-1 Activity” (Journal of Medicinal Chemistry, 2019).

The subject of data set [1] is P-gp. As to conditions: cited from earlier work.
For data set [2], the target named is T1, P-gp (Homo sapiens, UniProt P08183). In words: P-gp substrate accumulation assay (flow cytometry) in hCMEC/D3 cells. The format is cell-based. An excerpt: (§1) One of the goals of the designed TH heterodimers is to inhibit P-gp-mediated efflux. A substrate accumulation assay was used to evaluate the potency of Aba-S2-NFV1 and Aba-S2-DRV8 as P-gp inhibitors using the P-gp substrates calcein-AM and NBD-Aba.[38],[39] Two cell lines were used to monitor the accumulation of these fluorescent P-gp substrates: 12D7-MDR cells which are CD4+ T lymphocytes with overexpression of P-gp,[40] and hCMEC/D3 cells as an in vitro BBB model cell line.[41] hCMEC/D3 cells are an immortalized human brain capillary endothelial cell line that expresses endogenous levels of P-gp.[42],[43] Inhibition of P-gp efflux was measured by monitoring the increase in cellular fluorescence with added heterodimer by flow cytometry.
T1 sequence (P08183 whole entry): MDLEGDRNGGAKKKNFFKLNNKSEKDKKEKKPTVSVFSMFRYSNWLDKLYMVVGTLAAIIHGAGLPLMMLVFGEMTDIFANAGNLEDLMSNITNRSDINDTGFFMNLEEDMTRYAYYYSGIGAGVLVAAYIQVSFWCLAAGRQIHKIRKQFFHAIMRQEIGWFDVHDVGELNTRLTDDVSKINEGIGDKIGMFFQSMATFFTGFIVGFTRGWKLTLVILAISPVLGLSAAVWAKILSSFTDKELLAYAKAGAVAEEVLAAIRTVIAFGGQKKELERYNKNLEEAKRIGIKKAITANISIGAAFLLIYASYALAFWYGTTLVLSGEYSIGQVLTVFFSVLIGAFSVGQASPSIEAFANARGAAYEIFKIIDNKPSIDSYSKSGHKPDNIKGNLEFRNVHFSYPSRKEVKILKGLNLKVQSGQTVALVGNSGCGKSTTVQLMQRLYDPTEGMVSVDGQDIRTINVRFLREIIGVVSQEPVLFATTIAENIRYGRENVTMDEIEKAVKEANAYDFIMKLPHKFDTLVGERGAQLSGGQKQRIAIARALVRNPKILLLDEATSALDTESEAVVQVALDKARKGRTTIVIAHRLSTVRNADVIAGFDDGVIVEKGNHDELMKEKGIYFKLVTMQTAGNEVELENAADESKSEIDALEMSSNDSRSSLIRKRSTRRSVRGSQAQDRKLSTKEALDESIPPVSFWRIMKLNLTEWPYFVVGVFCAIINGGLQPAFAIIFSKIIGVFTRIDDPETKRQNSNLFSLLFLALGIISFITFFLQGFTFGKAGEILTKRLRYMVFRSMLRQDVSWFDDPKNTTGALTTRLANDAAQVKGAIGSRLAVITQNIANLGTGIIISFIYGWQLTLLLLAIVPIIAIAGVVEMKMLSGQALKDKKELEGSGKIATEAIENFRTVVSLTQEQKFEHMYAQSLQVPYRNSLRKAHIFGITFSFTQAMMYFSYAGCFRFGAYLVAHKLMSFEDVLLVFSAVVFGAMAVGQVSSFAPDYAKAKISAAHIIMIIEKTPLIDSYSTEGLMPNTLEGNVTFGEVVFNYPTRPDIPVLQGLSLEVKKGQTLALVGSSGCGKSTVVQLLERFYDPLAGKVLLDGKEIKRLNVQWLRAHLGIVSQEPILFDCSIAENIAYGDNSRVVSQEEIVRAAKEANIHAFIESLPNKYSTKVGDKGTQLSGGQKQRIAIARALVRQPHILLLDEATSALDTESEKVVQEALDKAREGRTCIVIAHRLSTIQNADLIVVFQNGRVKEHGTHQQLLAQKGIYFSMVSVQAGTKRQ
(§2) The growth of cells was maintained at 37 °C in 5% CO2. hCMEC/D3 cells were cultured according to literature protocols with minor modifications.[41]
(§3) Flow cytometry was used to estimate P-gp inhibition using a substrate accumulation assay as described previously with some minor changes.[38] […] The cells were harvested by centrifugation at 300g at 4 °C for 7 min. The supernatant was carefully removed, and 400 μL of cold, sterile PBS was added to the cell pellet. […] The mean fluorescence value for each concentration corresponded to 10 000 cells. Each sample was run in duplicate, and all the experiments were run in duplicates on two different days. The average fluorescence accumulated in the cells for samples was used to plot the mean fluorescence vs concentration, and the IC50 values were estimated using GraphPad Prism.
In general terms: Flow cytometry measures light scatter and fluorescence of single cells or particles in a stream.

The target of data set [3] is T1, P-gp. As to the kind of experiment: P-gp substrate accumulation assay (flow cytometry) in 12D7-MDR cells. Further details: host or cells: 12D7-MDR cells (CD4+ T lymphocytes, kept under vincristine). As to conditions: for IC50: 12D7-MDR cells, 30 min, 1% DMSO. It is filed as cell-based.
Text: as §1, §2, §3

Data set [4] is described as follows: Reversion of TH heterodimers into monomers in a reducing environment (DTT or GSH), UPLC-MS. The format is physicochemical. As to conditions: ratio of t1/2 values (DTT). As for the experimental part:
The breakdown of the TH heterodimers with DTT and glutathione (GSH) and the release of monomers were monitored using UPLC–MS at various time points. The reduction of the heterodimers to free thiols occurs rapidly, with full reduction observed within 1 h. Upon appearance of free thiols, the subsequent rearrangement led to the generation of the component monomeric drugs. […] This significant difference in monomer release is likely due to the differences in the chemical connectivity of the monomers. NFV, as described above, is connected to the tether via a phenolic moiety, whereas DRV is linked by a secondary alcohol. The better leaving group ability of the phenol versus the secondary alcohol likely leads to the observed difference in monomer regeneration.
Stability studies with DTT and GSH were adapted from a previously published protocol with some changes.[32] […] When monitoring NFV and DRV release, an aliquot of the reaction mixture was taken at different time points and directly analyzed by UPLC–MS. […] The time points were analyzed using RP-UPLC with a C18 column consisting of solvent A (water and 0.1% formic acid) and solvent B (acetonitrile and 0.1% formic acid), a gradient of 5–95% of solvent B over 10 min, and a flow rate of 0.5 mL/min. […]

In the next data set the test system is HIV-1LAI. In words: HIV-1 cell inhibition assay (p24 ELISA) in infected 12D7 cells. The format is cell-based. As to conditions: HIV-1LAI infected 12D7 cells; 6 days; medium with drug changed after 3 days; Figure 2. How it is done: (§4) To investigate if Aba-S2-NFV1 and Aba-S2-DRV8 are effective against HIV-1 in cells, an in vitro HIV-1 titer assay was performed using the 12D7 cell line. 12D7 cells were infected with HIV-1LAI, and anti-HIV-1 activity was measured by monitoring p24 protein levels as previously described.[45],[46] First the stability of the prodrugs was monitored in PBS and cell culture media using UPLC–MS. […] Therefore, for the cell-based anti-HIV-1 experiments, the medium, with drugs, was changed every 3 days. […] (Figure 2). […] Thus, this difference in chemical connectivity leads to a difference in monomer release that may be responsible for the differences in anti-HIV-1 potency.
12D7 cells were grown in the identical medium for the cell culture medium stability studies. The cells in log-phase were pelleted and resuspended at 1 million cells per mL. 500 TCID50 HIV-1LAI was used to infect cells for 4 h using a known procedure.[45] These infected cells were plated at a density of 75 000 cells per mL in 48-well plates after three washes with the medium. Different concentrations of the compound of interest were added keeping the DMSO concentration at 0.05%. […] On the sixth day, the supernatant was analyzed using ELISA to quantify the amount of HIV-1 p24 (gag) protein generated in each sample.[46] […]
Background: In an ELISA, binding on a coated surface is turned into a signal by an enzyme label.

The nature of another data set: in vitro. The format is cell-based. As to conditions: human. As for the experimental part: An MTT assay was used to determine the cell toxicity of Aba-S2-NFV1 and Aba-S2-DRV8 in the 12D7-MDR cell lines after 24 h.[44]
The viability of 12D7-MDR cells in the presence of a TH heterodimer (Aba-S2-NFV1 or Aba-S2-DRV8) was measured using the standard MTT assay.[44] 20 000 12D7-MDR cells were plated in 96-well plate in 100 μL of cell medium. After 12 h, TH heterodimer in medium was added to each well to give a final concentration of 5, 10, and 20 μM (1% DMSO). After 24 h 20 μL of MTT in PBS (5 mg/mL) was added to all the wells and incubated for 2.5 h. The 96-well plates were centrifuged at 300g for 7 min, followed by careful removal of supernatant. 100 μL of DMSO was added to dissolve the formazan. The absorbance of the DMSO solution was read using a plate reader at 590 nm. Cell viability was reported as the ratio of absorbance of cells treated with TH heterodimer relative to cells treated with DMSO.

Data set [5] is described as follows: Stability of prodrugs in PBS and cell culture media. The format is physicochemical. Conditions: 37 °C. How it is done: as §4
The cell media stability studies for the TH heterodimers (Aba-S2-NFV1 or Aba-S2-DRV8) were carried out following a previously published protocol with some modifications.[32] Heterodimers (100 μM) were incubated at 37 °C in the cell medium used for 12D7 cells (complete RPMI 1640 medium with 50 units/mL of penicillin and 50 μg/mL streptomycin, 5 mM of L-glutamine, and 10% FBS) with 1% DMSO. Every 24 h ice-cold acetonitrile with 4-methoxybenzyl alcohol (1.0 mM) was added to an aliquot of the reaction mixture (1:1). The resultant solution was vortexed for 1 min, sonicated for 10 min, and centrifuged twice at 10 000g for 10 min each. The supernatant was stored at −80 °C. All samples were analyzed using a C8 analytical column (Phenomenex, USA) on RP-HPLC with eluent consisting of solvent A (water and 0.05% TFA) and solvent B (acetonitrile and 0.05% TFA). A gradient of 15–75% solvent B over 30 min with a flow rate of 1.2 mL/min and UV detection at 254 nm was used. The assays were performed in duplicate.

Setting [6] is: NBD-Aba 5 μM, 30 min, 1% DMSO, read-out: IC50, inhibition of P-gp mediated efflux of NBD-Aba.
[7] abbreviates: calcein-AM 0.25 μM, 30 min, 1% DMSO, read-out: IC50, inhibition of P-gp mediated efflux of calcein-AM.
Where [8] appears, read: NBD-Aba 5 μM, read-out: IC50, inhibition of P-gp mediated efflux of NBD-Aba.
The mark [9] stands for this setting: calcein-AM 0.25 μM, read-out: IC50, inhibition of P-gp mediated efflux of calcein-AM.

Like-named read-outs stand apart in the source and are kept apart here.

For the molecule `Nc1nc(NC2CC2)c2ncn([C@H]3C=C[C@@H](CO)C3)c2n1` [Aba, abacavir], in the data set on P-gp [1] (P-gp null mice vs wild-type mice), the “increase of brain accumulation in P-gp null mice as compared to wild-type mice” value was 20 fold.
The IC50 is the midpoint of a concentration-inhibition curve. For the molecule `CC(C)CN(C[C@@H](O)[C@H](Cc1ccccc1)NC(=O)O[C@H]1CO[C@H]2OCC[C@H]21)S(=O)(=O)c1ccc(N)cc1` [DRV, darunavir, reference compound], the IC50 was 15400 ± 3200 nM on P-gp [2] (setting [6]), 6600 ± 1900 nM at P-gp [2] (setting [7]), 60000 ± 9400 nM at P-gp [3] (setting [8]) and 33200 ± 6500 nM on P-gp [3] (setting [9]).
Take `Cc1c(O)cccc1C(=O)N[C@@H](CSc1ccccc1)[C@H](O)CN1C[C@H]2CCCC[C@H]2C[C@H]1C(=O)NC(C)(C)C` [NFV, nelfinavir]: in the data set with P-gp [1] (mouse, not told), the “increase of brain accumulation in P-gp null mice as compared to wild-type mice” value was 36 fold.
The term viability denotes a read-out of living cells in per cent, often relative to untreated cells. `Cc1c(OC(=O)CCCSSCCCC(=O)OC[C@@H]2C=C[C@H](n3cnc4c(NC5CC5)nc(N)nc43)C2)cccc1C(=O)N[C@@H](CSc1ccccc1)[C@H](O)CN1C[C@H]2CCCC[C@H]2C[C@H]1C(=O)NC(C)(C)C` [Aba-S2-NFV1, abacavir-S2-nelfinavir-1]: in data set [4], the “fold faster release of NFV from Aba-S2-NFV1 than DRV release from Aba-S2-DRV8” value amounted to 18 fold. Besides, the IC50 on P-gp [2] (setting [6]) is 410 ± 60 nM; at P-gp [2] (setting [7]) it was 590 ± 70 nM; at P-gp [3] (setting [8]), 650 ± 90 nM; on P-gp [3] (setting [9]), 770 ± 50 nM. Further, the “anti-HIV-1 activity (HIV-1 p24 levels)” value in the data set on HIV-1LAI is listed as “superior potency as compared to Aba-S2-DRV8”. Further, the viability at 24 h, 20 µM in the data set “in vitro” was over 95%. In addition, the prodrug intact entry in data set [5] (after 1 week) was “greater than 95%”. Also, on P-gp [3] (ratio of IC50 values of Table 1, 12D7-MDR and hCMEC/D3 cells, calcein-AM and NBD-Aba), the “fold increase in inhibition of P-gp as compared to the monomeric PI (NFV or DRV)” value was 3- to 12 fold.
Regarding `CC(C)CN(C[C@@H](OC(=O)CCCSSCCCC(=O)OC[C@@H]1C=C[C@H](n2cnc3c(NC4CC4)nc(N)nc32)C1)[C@H](Cc1ccccc1)NC(=O)O[C@H]1CO[C@H]2OCC[C@H]21)S(=O)(=O)c1ccc(N)cc1` [Aba-S2-DRV8, abacavir-S2-darunavir-8], the IC50 at P-gp [2] (setting [6]) was 90 ± 20 nM; at P-gp [2] (setting [7]) it was 80 ± 20 nM; on P-gp [2] (calcein-AM and NBD-Aba substrates, read-out: IC50 values, inhibition of P-gp efflux), 80 to 90 nM; on P-gp [3] (setting [8]), 510 ± 80 nM; on P-gp [3] (setting [9]) it was 500 ± 40 nM. Besides, the “anti-HIV-1 activity (HIV-1 p24 levels)” value with HIV-1LAI is “less potent than the 1:1 mixture of Aba and DRV”. This molecule also returned a viability at 24 h, 20 µM in the data set “in vitro” of 70%. Moreover, in data set [5], the “stability of prodrug beyond 3 days” value was “decomposition observed after day 4”. The prodrug intact entry in data set [5] (after 3 days) is listed as “greater than 95%”.
